Data published in US20240182513A1, “SEPARATION OF METAL IONS FROM A SAMPLE USING GLYCOLIPIDS” (ARIZONA BOARD OF REGENTS ON BEHALF OF THE UNIVERSITY OF …, priority 2021, published 2024).

Test: Ion flotation of uranium from Monument Valley groundwater with rhamnolipid collectors
Text: Groundwater Collection and Analysis: The Monument Valley site is in Cane Valley, AZ, which is in northeastern Arizona. Groundwater was collected from monitoring well 662, which is down gradient of the source zone within the boundaries of the uranium groundwater plume. Samples were collected using dedicated bladder pumps and a QED Micropurge Controller. Groundwater was collected into a 50 L LDPE carboy (Thermo Scientific Nalgene) after the groundwater's pH and dissolved oxygen levels from the pump stabilized. The solution was stored as received, on the lab bench at ambient temperature until use.
For cation and anion analysis, groundwater was filtered ([…]) then diluted with 2% trace metals grade nitric acid (Fisher Scientific, Waltham, MA) in metal-free polypropylene 15 mL centrifuge tubes (VWR, Radnor, PA). Cations were analyzed using an Elan DRC-II inductively coupled plasma mass spectrometer (ICP-MS). Anions (F^−1, Cl^−1, Br^−1, NO2^−1, NO3^−1, […], and SO4^−2) were analyzed by using a Thermo Scientific Dionex ICS-6000 high-performance ion chromatography system. Data generated in this geochemical analysis were used to model uranium speciation using Visual MINTEQ 3.1. Only major solution constituents—those greater than 10 μg L^−1 for metals or 5 μmol L^−1 for anions—were included in the experiment, and carbonates were excluded because they are stripped from solution when nitrogen is sparged in the flotation process.
Chemicals: Both biosynthetic and synthetic monorhamnolipid collectors were tested for flotation efficiency. Biosynthetic monorhamnolipid tail lengths ‘m’ and ‘n’ range from 4 to 12 due to natural congener variation. Synthetic monorhamnolipids (Rha-C10-C10, Rha-C12-C12, or Rha-C14-C14) were synthesized with equal length tails where ‘m’=‘n’=6-14. The production and purification of biosynthetic monorhamnolipids (bio-mRL) from Pseudomonas aeruginosa ATCC 9027 has been previously described by Hogan et al., J. Hazard. Mater. 2017, 340, pp. 171-178. This organism exclusively produces monorhamnolipids—rhamnolipids with a single rhamnose sugar in the hydrophilic moiety of the molecule—as a congener mixture with varying hydrophobic tail lengths, in which the rhamnosyl-β-hydroxydecanoyl-β-hydroxydecanoate (C10-C10) dominates at 75-85 wt %. A molecular weight of 504 g mol^−1 (based on the C10-C10 structure) was used to estimate the bio-mRL concentration. Synthetic monorhamnolipids with decyl (Rha-C10-C10), dodecyl (Rha-C12-C12), and tetradecyl (Rha-C14-C14) hydrophobic moieties were prepared for comparative experiment. The molecular weights of the synthetic monorhamnolipids are 504.7, 560.8, and 616.9, respectively. All solutions were made using nanopure water (≥18 MΩ-cm). pH was adjusted with HNO3 and NaOH. […]

## CCCCCCCCCC(CC(=O)O)OC(=O)CC(CCCCCCCCC)OC1O[C@@H](C)[C@H](O)[C@@H](O)[C@H]1O (stereo partly drawn) [Rha C12C12, rhamnosyl-β-hydroxydodecanoyl-62-hydroxydodecanoate]
Native pH 8
  uranium removal: did not collect metals
pH 6.5
  uranium removal percentage: 6.6%
pH 7
  uranium removal: No significant amount of uranium was removed
